Values after ≈ are worked out from the molar mass of the structure shown. “Also recorded” adds a separate entry of the source. Where two headings read alike, the source gives them in different places.
Legend:
[1] = rat microsomes; cited from earlier work
[2] = test system: malaria-infected mice; settings: cited from earlier work
[3] = target: P. falciparum cyt bc1 (Plasmodium falciparum, UniProt Q02768); settings: cited from earlier work
[4] = mouse microsomes; cited from earlier work
[5] = test system: ATV resistant parasites; settings: cited from earlier work
[6] = human microsomes; cited from earlier work
[7] = test system: multidrug resistant P. falciparum strains; settings: cited from earlier work
[8] = cited by Chatterjee, CALIBR model system; cited from earlier work
[9] = Estimation of compound solubility in sesame oil; type: physicochemical; settings: room temperature, remained in solution for at least 72 hrs; for solubility: sesame oil, oil or lipid, thermodynamic from solid
Protocol: Generalized method for estimation of compound solubility in sesame oil: Sesame oil (10 μl) was dispensed into a glass vial containing 10 mg of the appropriate ELQ-300 prodrug. The mixture was vortexed and warmed (using a heat gun) to aid dissolution. The solubility of the compound was judged after the sesame oil mixture cooled to room temperature. If the compound was not completely dissolved, additional sesame oil was added in low-volume increments. Importantly, complete dissolution was assured by confirming by visual inspection that the compound remained in solution for at least 72 hrs at room temperature.

[10] = test system: P. yoelii luciferase expressing parasites (PyXNL non-lethal strain, luc+); experiment: Protection against P. yoelii sporozoite-induced infection in mice (bioluminescence imaging); type: in vivo, Plasmodium yoelii
Protocol: Animals receiving an im injection of 30 mg/kg ELQ-331 in sesame oil were challenged by inoculation with 10,000 P. yoelii luciferase expressing parasites (PyXNL non-lethal strain, luc^+) at two different time points, 48 days and 137 days post im injection (Note that separate groups of mice were used for these two challenges). For details of our experimental methods please refer to the work proposed section as well as published papers by Qigui Li (17) and Kami Kim (18). Sporozoites were obtained by dissection of infected mosquitoes, A. stephensi, and purification over glass wool with assistance from Dr. Brandon Wilder (formerly Sack), who recently joined the OHSU faculty (see letter of collaboration). Non-invasive whole animal
Bioluminescence imaging (BLI) was used to evaluate all study animals for the presence of liver stage infection using an IVIS Spectrum imager. Briefly, on the day of analysis mice received a single ip injection with a luciferin solution roughly 10 minutes before imaging. Each animal was placed on the IVIS platform with gaseous isoflurane serving as anesthetic. […] Of interest, we also challenged animals that had received an im injection (dissolved in sesame oil) of two similar ELQ-300 prodrugs, PSPS-173 and PSP6-16F.
Bioluminescent imaging (FIG. 2) was used to analyze the protective effect of im ELQ-300 prodrugs on Plasmodium yoelii liver stages. Mice were infected by inoculation with 10,000 Plasmodium yoelii GFP/luciferase expressing parasites (PyXNL non-lethal strain, luc*). As described in the narrative infected mice received sporozoite injections 48 days and 137 days following im injection with selected ELQ-300 prodrugs dissolved in sesame oil. After sporozoite challenge, mice underwent imaging for detection of bioluminescent signal after 24 and 48 hours and then again on Day 6 post-inoculation. Control mice show bioluminescent signal in the region above the liver of anesthetized mice after 24 hours which becomes more intense by 48 hours after which parasites emerge into the bloodstream as evidenced by widespread signal intensity across the entire animal by 6-days post inoculation.

[11] = test system: patent malaria infections in mice; settings: oral drug delivery, single dose; cited from earlier work
[12] = Pharmacokinetics of intramuscular (im) injections of ELQ-300 prodrugs in sesame oil in mice; type: in vivo; settings: at every time point after im injection, Trial 2
Protocol: We dissolved ELQ-331 in sesame oil and administered (30 mg/kg) in a single […] injection into the caudal thigh of mice in two separate trials. Trial 1 served as a pilot study to monitor ELQ-300 blood levels for months following a single im injection. In Trial 2 we adjusted the LC-MS/MS chromatographic protocol to capture prodrug [ELQ-331] as well as [ELQ-300] with early time-points to cover the critical burst phase, a phenomenon known as “dose dumping”. […] In Trial 2, we monitored plasma [ELQ-331] and [ELQ-300] starting 6 hours after im injection. To avoid excessive blood draws, 6 different groups of 4 mice, all treated at the same time, were used in a rotating succession, one group for each time point. FIG. 1 depicts Plasma [ELQ-300], nM, following im injection in mice of 30 mg/kg ELQ-331 (prodrug) in sesame oil. […] At all time-points the [ELQ-300] concentration exceeds the Minimum Fully Effective Concentration (MEC100) of ≈60 nM. All data points are the average values±SEM.
Also shown in FIG. 5 is a composite plot of plasma [ELQ-300] from both trials with remarkable consistency in the results. ELQ-331 outperformed the CALIBR ELQ-300 prodrug (mCAR246) profiled at the 2017 ASTMH meeting by a significant margin, i.e., Day 28 bloodstream [ELQ-300] levels for mCAR246=181±59 (30 mg/kg, unknown formulation) vs. 446±22 nM (avg.±SEM) for prodrug ELQ-331 in (30 mg/kg, sesame oil).

[13] = challenge 137 days (4½ months) after single im injection in sesame oil

Chain of P. falciparum cyt bc1 (Q02768 whole entry): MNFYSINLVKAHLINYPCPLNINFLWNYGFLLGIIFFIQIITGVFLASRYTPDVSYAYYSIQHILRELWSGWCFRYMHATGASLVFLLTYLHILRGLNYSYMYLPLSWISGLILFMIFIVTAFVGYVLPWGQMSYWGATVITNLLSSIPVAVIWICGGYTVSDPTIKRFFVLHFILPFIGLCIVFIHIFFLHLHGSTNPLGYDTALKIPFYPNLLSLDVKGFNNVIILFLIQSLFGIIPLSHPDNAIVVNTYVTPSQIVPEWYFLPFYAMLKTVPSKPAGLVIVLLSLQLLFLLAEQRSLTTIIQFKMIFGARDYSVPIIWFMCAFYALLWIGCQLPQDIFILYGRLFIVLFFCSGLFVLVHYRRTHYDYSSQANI

Compound: COc1cc2[nH]c(C)c(-c3ccc(Oc4ccc(OC(F)(F)F)cc4)cc3)c(=O)c2cc1Cl [ELQ-300, 6-Chloro-7-methoxy-2-methyl-3-[4-[4-(trifluoromethoxy)phenoxy]phenyl]-4(1H)-quinolinone]
- metabolic stability [1]: metabolically stable
- ED50 ([2]; 4-day Peters Test): 0.02 mg/kg
- curative dose ([2]; 4-day Peters Test): 0.3 to 1 mg/kg
- fold more effective than ATV in vivo in treatment of malaria-infected mice ([2]; relative to ATV): 30 fold
- selectivity for the parasite over the host cyt bc1 [3]: 10,000 fold
- metabolic stability [4]: metabolically stable
- potency vs. ATV resistant parasites [5]: equal potency
- metabolic stability [6]: metabolically stable
- IC50's vs. multidrug resistant P. falciparum strains [7]: low nanomolar
- minimum effective concentration (plasma ELQ-300) [8]: 83 nM

Compound: CCCCCCCCCOC(=O)OCOc1c(-c2ccc(Oc3ccc(OC(F)(F)F)cc3)cc2)c(C)nc2cc(OC)c(Cl)cc12 [ELQ-494]
- Sesame Oil Solubility [9]: 333 mg/mL

Compound: CCCCCCCCCCOC(=O)OCOc1c(-c2ccc(Oc3ccc(OC(F)(F)F)cc3)cc2)c(C)nc2cc(OC)c(Cl)cc12 [ELQ-495, ((6-chloro-7-methoxy-2-methyl-3-(4-(4-(trifluoromethoxy)phenoxy)phenyl)quinolin-4-yl)oxy)methyl decyl carbonate]
- solubility [9]: ≥ 500 mg/mL
- melting point: 55 °C

Compound: CCCCCOC(=O)OCOc1c(-c2ccc(Oc3ccc(OC(F)(F)F)cc3)cc2)c(C)nc2cc(OC)c(Cl)cc12 [ELQ-490, ((6-chloro-7-methoxy-2-methyl-3-(4-(4-(trifluoromethoxy)phenoxy)phenyl)quinolin-4-yl)oxy)methyl pentyl carbonate]
- solubility [9]: 83 mg/mL (≈ 134 mM)
- melting point: 109 °C

Compound: CCCCCCOC(=O)OCOc1c(-c2ccc(Oc3ccc(OC(F)(F)F)cc3)cc2)c(C)nc2cc(OC)c(Cl)cc12 [ELQ-491, ((6-chloro-7-methoxy-2-methyl-3-(4-(4-(trifluoromethoxy)phenoxy)phenyl)quinolin-4-yl)oxy)methyl hexyl carbonate]
- solubility [9]: 100 mg/mL (≈ 158 mM)
- melting point: 79 °C

Compound: CCOC(=O)OCOc1c(-c2ccc(Oc3ccc(OC(F)(F)F)cc3)cc2)c(C)nc2cc(OC)c(Cl)cc12 [ELQ-331, ((6-chloro-7-methoxy-2-methyl-3-(4-(4-(trifluoromethoxy)phenoxy)phenyl)quinolin-4-yl)oxy) methyl ethyl carbonate]
- protection against sporozoite challenge ([10]; challenge 48 days after single im injection in sesame oil): fully protected
- protection against sporozoite challenge [10, 13]: complete protection; also recorded: fully protected
- duration of protection in mice with a single im injection ([10]; single im injection): more than 4 months
- bioluminescent signal (liver stage infection) ([10]; sporozoite challenge 48 days after 30 mg/kg im injection (Trial 2)): no detectable bioluminescent signal
- bioluminescent signal (liver stage infection) ([10]; sporozoite challenge 137 days after 30 mg/kg im injection (Trial 1)): no detectable bioluminescent signal
- cure of patent malaria infections in mice [11]: single dose cures
- ratio of ELQ-300/ELQ-331 in plasma [12]: very large
- solubility [9]: 125 mg/mL (≈ 216 mM)

Compound: CCCCOC(=O)OCOc1c(-c2ccc(Oc3ccc(OC(F)(F)F)cc3)cc2)c(C)nc2cc(OC)c(Cl)cc12 [ELQ-489]
- Sesame Oil Solubility [9]: 71 mg/mL

Compound: CCCOC(=O)OCOc1c(-c2ccc(Oc3ccc(OC(F)(F)F)cc3)cc2)c(C)nc2cc(OC)c(Cl)cc12 [ELQ-488]
- Sesame Oil Solubility [9]: 83 mg/mL

Compound: CCCCCCCOC(=O)OCOc1c(-c2ccc(Oc3ccc(OC(F)(F)F)cc3)cc2)c(C)nc2cc(OC)c(Cl)cc12 [ELQ-492, ((6-chloro-7-methoxy-2-methyl-3-(4-(4-(trifluoromethoxy)phenoxy)phenyl)quinolin-4-yl)oxy)methyl heptyl carbonate]
- solubility [9]: 71 mg/mL (≈ 110 mM)

Compound: CCCCCCCOC(=O)OCOc1c(-c2ccc(Oc3ccc(OC(F)(F)F)cc3)cc2)c(C)nc2cc(OC)c(Cl)cc12 [PSP5-173]
- protection against sporozoite challenge [10, 13]: partially protected
- mice that developed blood stage infection ([10]; challenge 137 days after im injection): One of three

Compound: COC(=O)OCOc1c(-c2ccc(Oc3ccc(OC(F)(F)F)cc3)cc2)c(C)nc2cc(OC)c(Cl)cc12 [ELQ-487]
- Sesame Oil Solubility [9]: 91 mg/mL

Compound: CCCCCCCCOC(=O)OCOc1c(-c2ccc(Oc3ccc(OC(F)(F)F)cc3)cc2)c(C)nc2cc(OC)c(Cl)cc12 [ELQ-493, ((6-chloro-7-methoxy-2-methyl-3-(4-(4-(trifluoromethoxy)phenoxy)phenyl)quinolin-4-yl)oxy)methyl octyl carbonate]
- solubility [9]: 100 mg/mL (≈ 151 mM)
- melting point: 54 °C

Source: patent US20200369616A1, “ALKOXYCARBONATE ESTER PRODRUGS FOR USE AS ANTIMALARIAL AGENTS” (OREGON HEALTH & SCIENCE UNIVERSITY, priority 2019, published 2020)
